From PubChem BioAssay (NCI)
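Following 48 hours of exposure in 96-well plates, responses at five concentrations were used to interpolate endpoints linearly. GI50 = concentration required for 50% inhibition of growth. TGI denotes the concentration required for complete inhibition of growth.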

What was measured:
Test in all cases: inhibition of tumour cell growth, NCI panel, 48 h
786-0 renal = tested on: 786-0 renal
A498 renal = tested on: A498 renal
A549 NSCLC = tested on: A549 NSCLC
ACHN renal = tested on: ACHN renal
BT-549 breast = tested on: BT-549 breast
CAKI-1 renal = tested on: CAKI-1 renal
CCRF-CEM leukemia = tested on: CCRF-CEM leukemia
COLO 205 colon = tested on: COLO 205 colon
DU-145 prostate = tested on: DU-145 prostate
EKVX NSCLC = tested on: EKVX NSCLC
HCC-2998 colon = tested on: HCC-2998 colon
HCT-116 colon = tested on: HCT-116 colon
HCT-15 colon = tested on: HCT-15 colon
HL-60(TB) leukemia = tested on: HL-60(TB) leukemia
HOP-62 NSCLC = tested on: HOP-62 NSCLC
HOP-92 NSCLC = tested on: HOP-92 NSCLC
HS 578T breast = tested on: HS 578T breast
HT29 colon = tested on: HT29 colon
IGROV1 ovarian = tested on: IGROV1 ovarian
K-562 leukemia = tested on: K-562 leukemia
KM12 colon = tested on: KM12 colon
LOX IMVI melanoma = tested on: LOX IMVI melanoma
M14 melanoma = tested on: M14 melanoma
MALME-3M melanoma = tested on: MALME-3M melanoma
MCF7 breast = tested on: MCF7 breast
MDA-MB-231 breast = tested on: MDA-MB-231 breast
MDA-MB-435 = tested on: MDA-MB-435
MOLT-4 leukemia = tested on: MOLT-4 leukemia
NCI-H226 lung = tested on: NCI-H226 lung
NCI-H23 lung = tested on: NCI-H23 lung
NCI-H460 lung = tested on: NCI-H460 lung
NCI-H522 lung = tested on: NCI-H522 lung
NCI/ADR-RES ovarian = tested on: NCI/ADR-RES ovarian
OVCAR-3 ovarian = tested on: OVCAR-3 ovarian
OVCAR-4 ovarian = tested on: OVCAR-4 ovarian
OVCAR-5 ovarian = tested on: OVCAR-5 ovarian
OVCAR-8 ovarian = tested on: OVCAR-8 ovarian
PC-3 prostate = tested on: PC-3 prostate
RPMI-8226 leukemia = tested on: RPMI-8226 leukemia
RXF 393 renal = tested on: RXF 393 renal
SF-268 CNS = tested on: SF-268 CNS
SF-295 CNS = tested on: SF-295 CNS
SF-539 CNS = tested on: SF-539 CNS
SK-MEL-2 melanoma = tested on: SK-MEL-2 melanoma
SK-MEL-28 melanoma = tested on: SK-MEL-28 melanoma
SK-MEL-5 melanoma = tested on: SK-MEL-5 melanoma
SK-OV-3 ovarian = tested on: SK-OV-3 ovarian
SN12C renal = tested on: SN12C renal
SNB-19 CNS = tested on: SNB-19 CNS
SW-620 colon = tested on: SW-620 colon
T-47D breast = tested on: T-47D breast
TK-10 renal = tested on: TK-10 renal
U251 CNS = tested on: U251 CNS
UACC-257 melanoma = tested on: UACC-257 melanoma
UACC-62 melanoma = tested on: UACC-62 melanoma
UO-31 renal = tested on: UO-31 renal

Compound: CCOc1cc2ncc(C#N)c(Nc3ccc(F)c(Cl)c3)c2cc1NC(=O)CC1CCSS1 (configuration not stated)
- GI50 (786-0 renal): 1.84 µM
- TGI (786-0 renal): 12.9 µM
- GI50 (A498 renal): 3.05 µM
- TGI (A498 renal): 11.4 µM
- GI50 (A549 NSCLC): 0.616 µM
- TGI (A549 NSCLC): 1.16 µM
- GI50 (ACHN renal): 0.429 µM
- TGI (ACHN renal): 1.15 µM
- GI50 (BT-549 breast): 1.5 µM
- TGI (BT-549 breast): 7.46 µM
- GI50 (CAKI-1 renal): 0.979 µM
- TGI (CAKI-1 renal): 4.59 µM
- GI50 (CCRF-CEM leukemia): 0.792 µM
- TGI (CCRF-CEM leukemia): 2.06 µM
- GI50 (COLO 205 colon): 0.982 µM
- TGI (COLO 205 colon): 3.39 µM
- GI50 (DU-145 prostate): 0.58 µM
- TGI (DU-145 prostate): 1.28 µM
- GI50 (EKVX NSCLC): 0.476 µM
- TGI (EKVX NSCLC): 1.93 µM
- GI50 (HCC-2998 colon): 0.569 µM
- TGI (HCC-2998 colon): 1.1 µM
- GI50 (HCT-116 colon): 0.63 µM
- TGI (HCT-116 colon): 1.27 µM
- GI50 (HCT-15 colon): 0.649 µM
- TGI (HCT-15 colon): 1.7 µM
- GI50 (HL-60(TB) leukemia): 0.93 µM
- TGI (HL-60(TB) leukemia): 4 µM
- GI50 (HOP-62 NSCLC): 0.533 µM
- TGI (HOP-62 NSCLC): 1.16 µM
- GI50 (HOP-92 NSCLC): 3.24 µM
- TGI (HOP-92 NSCLC): 13.7 µM
- GI50 (HS 578T breast): 1.39 µM
- TGI (HS 578T breast): 11.7 µM
- GI50 (HT29 colon): 0.603 µM
- TGI (HT29 colon): 1.2 µM
- GI50 (IGROV1 ovarian): 0.392 µM
- TGI (IGROV1 ovarian): 1.63 µM
- GI50 (K-562 leukemia): 0.881 µM
- TGI (K-562 leukemia): 2.29 µM
- GI50 (KM12 colon): 0.563 µM
- TGI (KM12 colon): 1.13 µM
- GI50 (LOX IMVI melanoma): 0.579 µM
- TGI (LOX IMVI melanoma): 1.17 µM
- GI50 (M14 melanoma): 0.572 µM
- TGI (M14 melanoma): 1.33 µM
- GI50 (MALME-3M melanoma): 1.64 µM
- TGI (MALME-3M melanoma): 6.41 µM
- GI50 (MCF7 breast): 0.694 µM
- TGI (MCF7 breast): 1.9 µM
- GI50 (MDA-MB-231 breast): 0.833 µM
- TGI (MDA-MB-231 breast): 2 µM
- GI50 (MDA-MB-435): 0.597 µM
- TGI (MDA-MB-435): 1.23 µM
- GI50 (MOLT-4 leukemia): 0.748 µM
- TGI (MOLT-4 leukemia): 1.89 µM
- GI50 (NCI-H226 lung): 2.11 µM
- TGI (NCI-H226 lung): 7.4 µM
- GI50 (NCI-H23 lung): 1.12 µM
- TGI (NCI-H23 lung): 4.55 µM
- GI50 (NCI-H460 lung): 0.676 µM
- TGI (NCI-H460 lung): 1.41 µM
- GI50 (NCI-H522 lung): 0.786 µM
- TGI (NCI-H522 lung): 4.7 µM
- GI50 (NCI/ADR-RES ovarian): 0.751 µM
- TGI (NCI/ADR-RES ovarian): 2.04 µM
- GI50 (OVCAR-3 ovarian): 0.717 µM
- TGI (OVCAR-3 ovarian): 2.08 µM
- GI50 (OVCAR-4 ovarian): 0.663 µM
- TGI (OVCAR-4 ovarian): 2.35 µM
- GI50 (OVCAR-5 ovarian): 2.1 µM
- TGI (OVCAR-5 ovarian): 13.5 µM
- GI50 (OVCAR-8 ovarian): 0.809 µM
- TGI (OVCAR-8 ovarian): 1.92 µM
- GI50 (PC-3 prostate): 0.629 µM
- TGI (PC-3 prostate): 1.21 µM
- GI50 (RPMI-8226 leukemia): 1.64 µM
- TGI (RPMI-8226 leukemia): 33.3 µM
- GI50 (RXF 393 renal): 1.13 µM
- TGI (RXF 393 renal): 3.97 µM
- GI50 (SF-268 CNS): 0.74 µM
- TGI (SF-268 CNS): 2.23 µM
- GI50 (SF-295 CNS): 1.65 µM
- TGI (SF-295 CNS): 6.67 µM
- GI50 (SF-539 CNS): 5 µM
- TGI (SF-539 CNS): 17.4 µM
- GI50 (SK-MEL-2 melanoma): 0.697 µM
- TGI (SK-MEL-2 melanoma): 2 µM
- GI50 (SK-MEL-28 melanoma): 0.659 µM
- TGI (SK-MEL-28 melanoma): 1.53 µM
- GI50 (SK-MEL-5 melanoma): 3.24 µM
- TGI (SK-MEL-5 melanoma): 7.23 µM
- GI50 (SK-OV-3 ovarian): 0.509 µM
- TGI (SK-OV-3 ovarian): 0.99 µM
- GI50 (SN12C renal): 0.88 µM
- TGI (SN12C renal): 2.5 µM
- GI50 (SNB-19 CNS): 1.98 µM
- TGI (SNB-19 CNS): 12.3 µM
- GI50 (SW-620 colon): 1.04 µM
- TGI (SW-620 colon): 3.57 µM
- GI50 (T-47D breast): 1.38 µM
- TGI (T-47D breast): 6.92 µM
- GI50 (TK-10 renal): 0.556 µM
- TGI (TK-10 renal): 1.48 µM
- GI50 (U251 CNS): 1.1 µM
- TGI (U251 CNS): 3.46 µM
- GI50 (UACC-257 melanoma): 1.96 µM
- TGI (UACC-257 melanoma): 6.92 µM
- GI50 (UACC-62 melanoma): 1.97 µM
- TGI (UACC-62 melanoma): 7.28 µM
- GI50 (UO-31 renal): 0.395 µM
- TGI (UO-31 renal): 0.955 µM
